Key:
[1] = AUC (0 to infinity) in Sprague-Dawley rat at 2 mg/kg, iv measured upto 24 hrs by LC-MS/MS-AR analysis; format: ADME, organism-based; details: in vivo
[2] = Half life in Sprague-Dawley rat at 2 mg/kg, po measured upto 24 hrs by LC-MS/MS-AR analysis; format: ADME, organism-based; details: in vivo
[3] = molecular target: T1, Solute carrier family 2, facilitated glucose transporter member 9 (Mus musculus) (UniProt Q3T9X0); experiment: Inhibition of mouse EGFP-tagged GLUT9 expressed in HEK293T cells assessed as inhibition rate by measuring relative current at 5 uM by patch clamp electrophysiological analysis relative to control; format: cell-based; parameters: scale not given: the % may be the effect or the level left
T1 sequence (whole entry): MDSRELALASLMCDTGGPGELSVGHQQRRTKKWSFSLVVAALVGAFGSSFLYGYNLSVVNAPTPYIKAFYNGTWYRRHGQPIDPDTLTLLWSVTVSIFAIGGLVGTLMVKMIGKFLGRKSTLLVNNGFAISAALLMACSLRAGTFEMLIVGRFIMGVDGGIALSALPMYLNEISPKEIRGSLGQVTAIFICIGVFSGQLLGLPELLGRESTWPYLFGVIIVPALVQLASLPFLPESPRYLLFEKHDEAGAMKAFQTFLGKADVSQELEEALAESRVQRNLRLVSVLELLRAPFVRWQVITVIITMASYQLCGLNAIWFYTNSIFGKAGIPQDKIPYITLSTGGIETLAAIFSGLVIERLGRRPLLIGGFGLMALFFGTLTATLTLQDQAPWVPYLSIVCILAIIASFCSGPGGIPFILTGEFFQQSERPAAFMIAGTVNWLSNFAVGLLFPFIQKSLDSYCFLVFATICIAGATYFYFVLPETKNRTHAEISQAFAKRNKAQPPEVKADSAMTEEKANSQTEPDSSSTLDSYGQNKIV

[4] = Toxicity in Kunming female mouse assessed as coagulation necrosis of hepatocyte at 100 mg/kg, po administered every other day for 14 days by H and E staining based assay; format: organism-based; details: 336 h, time 14 day
[5] = molecular target: Xanthine dehydrogenase/oxidase (Bos taurus, UniProt P80457); experiment: Inhibition of bovine XOD using xanthine as substrate assessed as inhibitory ratio at 10 uM by spectrophotometric analysis relative to control; details: cattle
Chain of Xanthine dehydrogenase/oxidase (P80457 whole entry): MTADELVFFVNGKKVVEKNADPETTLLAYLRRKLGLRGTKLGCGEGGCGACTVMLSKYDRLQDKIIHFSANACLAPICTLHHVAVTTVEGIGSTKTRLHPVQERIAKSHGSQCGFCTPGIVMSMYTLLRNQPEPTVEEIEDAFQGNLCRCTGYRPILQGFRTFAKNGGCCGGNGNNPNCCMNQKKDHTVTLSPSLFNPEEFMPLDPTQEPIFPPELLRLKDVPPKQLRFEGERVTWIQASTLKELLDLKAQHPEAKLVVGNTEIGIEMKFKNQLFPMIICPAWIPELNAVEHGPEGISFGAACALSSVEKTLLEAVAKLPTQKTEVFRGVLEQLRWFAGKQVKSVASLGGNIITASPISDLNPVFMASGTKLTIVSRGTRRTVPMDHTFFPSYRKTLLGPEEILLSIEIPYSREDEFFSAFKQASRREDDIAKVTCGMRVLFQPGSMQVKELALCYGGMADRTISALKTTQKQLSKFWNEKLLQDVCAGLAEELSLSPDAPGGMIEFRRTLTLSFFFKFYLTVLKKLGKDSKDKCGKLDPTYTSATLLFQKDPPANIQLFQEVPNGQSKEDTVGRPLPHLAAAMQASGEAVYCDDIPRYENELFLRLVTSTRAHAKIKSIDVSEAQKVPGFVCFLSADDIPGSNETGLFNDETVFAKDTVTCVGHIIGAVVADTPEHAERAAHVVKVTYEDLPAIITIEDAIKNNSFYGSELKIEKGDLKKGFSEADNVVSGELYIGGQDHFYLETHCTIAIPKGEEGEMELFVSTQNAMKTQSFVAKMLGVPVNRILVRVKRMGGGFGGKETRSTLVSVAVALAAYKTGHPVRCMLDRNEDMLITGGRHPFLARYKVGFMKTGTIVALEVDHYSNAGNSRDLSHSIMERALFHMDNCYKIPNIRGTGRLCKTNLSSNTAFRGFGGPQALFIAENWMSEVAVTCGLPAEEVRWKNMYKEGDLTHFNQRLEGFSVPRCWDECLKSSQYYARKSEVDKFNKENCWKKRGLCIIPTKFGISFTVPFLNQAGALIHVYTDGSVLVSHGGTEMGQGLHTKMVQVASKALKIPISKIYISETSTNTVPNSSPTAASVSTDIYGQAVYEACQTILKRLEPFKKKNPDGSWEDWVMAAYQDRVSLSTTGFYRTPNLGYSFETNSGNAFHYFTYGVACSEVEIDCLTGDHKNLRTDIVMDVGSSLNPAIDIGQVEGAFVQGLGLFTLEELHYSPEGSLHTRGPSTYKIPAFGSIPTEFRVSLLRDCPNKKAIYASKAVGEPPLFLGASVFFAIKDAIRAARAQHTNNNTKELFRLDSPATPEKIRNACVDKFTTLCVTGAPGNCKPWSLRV

[6] = Cmax in Sprague-Dawley rat at 2 mg/kg, po measured upto 24 hrs by LC-MS/MS-AR analysis; format: ADME, organism-based; details: in vivo
[7] = Acute toxicity in Kunming mouse assessed as convulsions at 250 to 1000 mg/kg, po administered as single dose monitored for 7 days; format: organism-based; details: in vivo, 168 h, dose 250-1000 mg/kg, time 7 day
[8] = test system: Mus musculus; experiment: Reduction in serum uric acid level in acute hyperuricemia state Kunming mouse model assessed as SUA level by measuring decrease ratio at 0.25 mg/kg, po relative to control; format: functional; parameters: scale not given: the % may be the effect or the level left
[9] = test system: Rattus norvegicus; experiment: Reduction in serum uric acid level in po dosed acute hyperuricemia state Sprague-Dawley rat model assessed as SUA level by measuring decrease ratio relative to control; format: functional; parameters: scale not given: the % may be the effect or the level left
[10] = test system: Mus musculus; experiment: Reduction in serum uric acid level in acute hyperuricemia state Kunming mouse model assessed as SUA level at 1 mg/kg, po (reference value: 1037 +/- 106.59 uM); format: functional
[11] = AUC (0 to t) in Sprague-Dawley rat at 2 mg/kg, iv measured upto 24 hrs by LC-MS/MS-AR analysis; format: ADME, organism-based; details: in vivo
[12] = Half life in Sprague-Dawley rat at 2 mg/kg, iv measured upto 24 hrs by LC-MS/MS-AR analysis; format: ADME, organism-based; details: in vivo
[13] = test system: Mus musculus; experiment: Reduction in serum uric acid level in acute hyperuricemia state Kunming mouse model assessed as SUA level at 0.25 mg/kg, po (reference value: 1037 +/- 106.59 uM); format: functional
[14] = organism: Mus musculus; experiment: Reduction in serum uric acid level in acute hyperuricemia state Kunming mouse model assessed as SUA level; format: functional
[15] = Toxicity in Kunming female mouse assessed as pathological changes at 100 mg/kg, po administered every other day for 14 days by H and E staining based assay; format: organism-based; details: in vivo, 336 h, time 14 day
[16] = test system: Mus musculus; experiment: Reduction in serum uric acid level in acute hyperuricemia state Kunming mouse model assessed as SUA level by measuring decrease ratio at 1 mg/kg, po relative to control; format: functional; parameters: scale not given: the % may be the effect or the level left
[17] = molecular target: T2, Cytochrome P450 1A2 (Homo sapiens, UniProt P05177); experiment: Inhibition of CYP1A2 in human liver microsomes measured after 40 mins incubation by LC-MS/MS analysis; format: ADME, Microsome
T2 sequence (P05177 whole entry): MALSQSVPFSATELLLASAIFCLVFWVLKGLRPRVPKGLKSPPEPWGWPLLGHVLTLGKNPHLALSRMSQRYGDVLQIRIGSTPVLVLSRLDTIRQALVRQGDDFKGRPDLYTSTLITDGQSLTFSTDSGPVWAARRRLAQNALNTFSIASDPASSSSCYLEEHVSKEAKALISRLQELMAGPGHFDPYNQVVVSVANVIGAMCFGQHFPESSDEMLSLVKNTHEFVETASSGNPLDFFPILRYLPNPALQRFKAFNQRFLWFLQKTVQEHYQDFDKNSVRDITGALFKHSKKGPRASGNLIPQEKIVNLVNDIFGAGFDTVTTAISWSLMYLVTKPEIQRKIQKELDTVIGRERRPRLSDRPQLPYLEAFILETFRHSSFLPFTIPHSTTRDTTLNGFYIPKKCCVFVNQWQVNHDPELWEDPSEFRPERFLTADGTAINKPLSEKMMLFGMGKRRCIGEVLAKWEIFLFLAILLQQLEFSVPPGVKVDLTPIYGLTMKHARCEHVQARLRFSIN

[18] = Tmax in Sprague-Dawley rat at 2 mg/kg, po measured upto 24 hrs by LC-MS/MS-AR analysis; format: ADME, organism-based; details: in vivo
[19] = Acute toxicity in Kunming mouse assessed as lethargy at 250 to 1000 mg/kg, po administered as single dose monitored for 7 days; format: organism-based; details: in vivo, 168 h, dose 250-1000 mg/kg, time 7 day
[20] = Clearance in Sprague-Dawley rat at 2 mg/kg, iv measured upto 24 hrs by LC-MS/MS-AR analysis; format: ADME, organism-based; details: in vivo
[21] = Cmax in Sprague-Dawley rat at 2 mg/kg, iv measured upto 24 hrs by LC-MS/MS-AR analysis; format: ADME, organism-based; details: in vivo
[22] = Subacute toxicity in Kunming female mouse assessed as change in body weight at 100 mg/kg, po administered every other day for 14 days; format: organism-based; details: in vivo, 336 h, time 14 day
[23] = organism: Mus musculus; experiment: Reduction in serum uric acid level in chronic hyperuricemia state Kunming mouse model assessed as SUA level by measuring decrease ratio relative to control; format: functional; parameters: scale not given: the % may be the effect or the level left
[24] = test system: Mus musculus; experiment: Reduction in serum uric acid level in acute hyperuricemia state Kunming mouse model assessed as SUA level by measuring decrease ratio at 0.5 mg/kg, po relative to control; format: functional; parameters: scale not given: the % may be the effect or the level left

O=C(O)CCCSc1nc(Nc2ccc(C3CC3)c3ccccc23)c2sccc2n1
AUC [1]: 1922.9 ng·h/mL
half-life [2]: 1.8 h
Activity [3]: 69.7%
Activity [4]: Non-Toxic
inhibition at 10 µM [5]: 11.7%
Cmax [6]: 1270 ng/mL
Activity [7]: Non-Toxic
Activity [8]: 9.89%
Activity [9]: 90.12%
Activity [10]: 208.6 µM
AUC(0-t) at 24 h [11]: 1900 ng·h/mL
half-life [12]: 1.6 h
Activity [13]: 945 µM
Activity [14]: 191.6 µM
Activity [15]: Non-Toxic
Activity [16]: 89.08%
IC50 [17]: 9.48 µM
Tmax [18]: 0.25 h
Activity [19]: Non-Toxic
clearance [20]: 17 mL/min/kg
Cmax [21]: 6590 ng/mL
Activity [22]: Toxic
Activity [23]: 76.33%
Activity [24]: 66.49%
